# Reference: US6528095B1, “Anti-atherosclerotic and anti-thrombotic agent and the use thereof” (Potchefstroom University for Christian Higher Education, priority 2000, dated 2003)
# Where two headings read alike, the source gives them in different places.
# Tests used:
# [1] = Pectin / calcium acetate supplementation in human males: body weight and BMI; format: in vivo
# Description: The acetate supplement (phase 2), however, caused a decrease (from 88.16±12.35 kg to 83.09±10.80 kg) in body weight. Although this decrease may not be of statistical significance, it can be clinically significant in the cases of those subjects who lost weight.
# [2] = Supplementation in human males: haemorheological variables (haematocrit, haemoglobin, plasma viscosity); format: in vivo; conditions: for VISCOSITY: plasma
# Procedure: (§1) The respective effects of pectin and an acetate when administered to the colon of a mammal were determined during a first experiment. The experiment was conducted in the following two phases: [drawing 1]
# (§2) Twenty human males participated in the experimentation and these subjects were not on any medication for any chronic diseases at the time, and also had no history of cardiovascular disease. All the subjects were at the time following a relatively high fibre, low fat diet. During the first phase ten subjects consumed a total of 15 grams of pectin per day in four aliquots, while the other ten consumed a total of 15 grams of placebo (starch) per day in four aliquots.
# (§3) During the second phase, the first group consumed a total of 7.5 grams of calcium acetate per day in four aliquots and the second group consumed a total of 15 grams of pectin per day in four aliquots. The calcium acetate was administered in capsules which were coated with a protective coating comprising a resin known commercially as shellac. This protective coating is resistant to digestion and solution in the stomach and small intestines, is but not resistant to the enzymes of the organisms usually found in the colon, so that the calcium acetate was thus released in the colon.
# (§4) Blood samples where taken from the subjects after each phase and a large number of variables where tested.
# fibrin clot [3] = assay: Supplementation in human males: haemostatic variables and characteristics of fibrin networks developed in plasma; format: in vivo; conditions: for CLOT (FIBRIN): clot fibrin content; for LYSIS TIME (t 50%) / Permeability: clot; for COMPACTION: fibrin clot; for MPC: macromolecular protein complex; for μ,: mass length ratio from turbidity; for FIBRINOGEN: plasma
# Procedure: as §1, §2, §3, §4
# blood lipids [4] = assay: Supplementation in human males: lipid variables; format: in vivo; conditions: for TC: total cholesterol; for TG: triglycerides
# Procedure: as §1, §2, §3, §4
# [5] = Supplementation in human males: metabolic variables; conditions: for ACETATE: acetate level in blood sample; for FFA: free fatty acids; for IR: insulin resistance; for TP: total protein
# Procedure: as §1, §2, §3, §4
# fibrin = fibrin (Homo sapiens, UniProt P02671+P02675+P02679); conditions: progressive increase in acetate, FIG. 2
# Description: FIG. 2 is a urbidity curve of fibrin formation in the presence of different acetate concentrations; and
# Referring to FIG. 2, the kinetics of network growth were subsequently investigated by continuously recording changes in turbidity at 608 nm, during network development under identical experimental conditions.
# fibrin clot [6] = molecular target: fibrin clot (Homo sapiens, UniProt P02671+P02675+P02679); conditions: in vitro, n = 5
# blood lipids [7] = conditions: for % Inhibition / [Hydroperoxide]: in vitro; for [Hydroperoxide]: n = 5
# [8] = Pectin / calcium acetate supplementation in human males: body weight and BMI; format: in vivo; remark: listed apart in the source
# [9] = phase 2, end of supplementation (pectin 15 g/day; calcium acetate 7.5 g/day)
# Chain of fibrin clot (Homo sapiens, UniProt P02671+P02675+P02679) (P02671 36-629 limits assumed): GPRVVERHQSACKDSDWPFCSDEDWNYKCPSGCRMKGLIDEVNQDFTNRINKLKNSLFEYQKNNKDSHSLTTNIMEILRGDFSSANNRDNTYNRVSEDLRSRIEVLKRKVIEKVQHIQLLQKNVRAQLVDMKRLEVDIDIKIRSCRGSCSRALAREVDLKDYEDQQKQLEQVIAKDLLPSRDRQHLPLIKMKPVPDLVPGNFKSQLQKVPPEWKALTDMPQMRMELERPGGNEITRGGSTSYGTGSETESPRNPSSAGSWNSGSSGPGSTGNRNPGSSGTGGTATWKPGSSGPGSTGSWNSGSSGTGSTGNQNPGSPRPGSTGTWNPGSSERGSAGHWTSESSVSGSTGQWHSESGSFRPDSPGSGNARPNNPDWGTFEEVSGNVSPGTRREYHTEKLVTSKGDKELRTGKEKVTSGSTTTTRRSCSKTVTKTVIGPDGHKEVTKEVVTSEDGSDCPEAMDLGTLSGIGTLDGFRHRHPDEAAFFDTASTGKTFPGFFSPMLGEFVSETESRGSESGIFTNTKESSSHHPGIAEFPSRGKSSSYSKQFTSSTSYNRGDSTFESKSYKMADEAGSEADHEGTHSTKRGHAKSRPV
# Chain of fibrin clot (Homo sapiens, UniProt P02671+P02675+P02679) (P02675 45-491 limits assumed): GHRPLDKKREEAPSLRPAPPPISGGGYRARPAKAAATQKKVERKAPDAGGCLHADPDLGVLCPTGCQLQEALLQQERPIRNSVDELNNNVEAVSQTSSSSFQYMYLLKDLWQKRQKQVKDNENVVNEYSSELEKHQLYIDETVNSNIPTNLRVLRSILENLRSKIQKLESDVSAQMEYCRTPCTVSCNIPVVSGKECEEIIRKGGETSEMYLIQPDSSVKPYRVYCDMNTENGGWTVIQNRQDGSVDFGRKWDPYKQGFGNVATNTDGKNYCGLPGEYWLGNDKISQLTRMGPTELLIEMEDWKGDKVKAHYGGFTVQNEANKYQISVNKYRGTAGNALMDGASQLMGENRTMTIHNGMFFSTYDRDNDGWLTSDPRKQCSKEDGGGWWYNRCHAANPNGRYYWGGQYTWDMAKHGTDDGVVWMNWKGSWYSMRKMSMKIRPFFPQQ
# Chain of fibrin clot (Homo sapiens, UniProt P02671+P02675+P02679) (P02679 27-437 isoform P02679-2 limits assumed): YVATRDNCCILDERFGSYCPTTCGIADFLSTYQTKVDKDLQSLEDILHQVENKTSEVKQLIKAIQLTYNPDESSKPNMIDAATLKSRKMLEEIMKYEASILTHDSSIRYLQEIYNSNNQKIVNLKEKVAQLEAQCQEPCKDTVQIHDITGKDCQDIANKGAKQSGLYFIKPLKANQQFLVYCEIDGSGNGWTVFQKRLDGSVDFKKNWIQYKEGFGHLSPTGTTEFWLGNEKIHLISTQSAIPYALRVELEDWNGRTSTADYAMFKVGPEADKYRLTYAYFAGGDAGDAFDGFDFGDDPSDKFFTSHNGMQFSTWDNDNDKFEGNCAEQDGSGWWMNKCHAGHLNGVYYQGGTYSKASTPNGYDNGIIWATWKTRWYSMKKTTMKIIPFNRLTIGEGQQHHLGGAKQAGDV
# Chain of fibrin (P02671 36-629 limits assumed): as the sequence (P02671 36-629 limits assumed) above
# Chain of fibrin (P02675 45-491 limits assumed): as the sequence (P02675 45-491 limits assumed) above
# Chain of fibrin (P02679 27-437 isoform P02679-2 limits assumed): as the sequence (P02679 27-437 isoform P02679-2 limits assumed) above
structure (smiles),measurement,setting,value
"CC(=O)[O-].CC(=O)[O-].[Ca+2] [ACETATE, calcium acetate]",BMI,"[1]; phase 2, baseline",26.90 kg/m^2
same,BMI,[1]; [9],25.65 kg/m^2
same,HAEMATOCRIT,"[2]; phase 2, baseline",48.55%
same,HAEMOGLOBIN,"[2]; phase 2, baseline",11.12 mmol/L
same,HAEMATOCRIT,[2]; [9],46.83 ± %
same,HAEMOGLOBIN,[2]; [9],10.48 mmol/L
same,VISCOSITY,"[2]; phase 2, baseline",1.92 cP
same,VISCOSITY,[2]; [9],1.61 ± cP
same,CLOT (FIBRIN),"fibrin clot [3]; phase 2, baseline",2.00 g/L
same,CLOT (FIBRIN),fibrin clot [3]; [9],1.62 ± g/l
same,LYSIS TIME (t 50%),"fibrin clot [3]; phase 2, baseline",251.9
same,Permeability,"fibrin clot [3]; phase 2, baseline",212.52 × 10^11 cm^3
same,LYSIS TIME (t 50%),fibrin clot [3]; [9],130.3 ±
same,Permeability,fibrin clot [3]; [9],306.81 ± × 10^11 cm^3
same,COMPACTION,"fibrin clot [3]; phase 2, baseline",22.47%
same,COMPACTION,fibrin clot [3]; [9],32.21 ± %
same,MPC,"fibrin clot [3]; phase 2, baseline",0.1146 g/L
same,MPC,fibrin clot [3]; [9],0.0852 ± g/l
same,"μ,","fibrin clot [3]; phase 2, baseline",22.93 Dal/cm × 10^12
same,"μ,",fibrin clot [3]; [9],34.28 ± Dal/cm × 10^12
same,decrease in the total plasma fibrinogen concentration,"fibrin clot [3]; phase 2, acetate supplementation, not significant",11.2%
same,FIBRINOGEN,"fibrin clot [3]; phase 2, baseline",4.10 g/L
same,FIBRINOGEN,fibrin clot [3]; [9],3.64 g/L
same,% HDL-C,"blood lipids [4]; phase 2, baseline",17.04%
same,ApoA,"blood lipids [4]; phase 2, baseline",1.50 mmol/L
same,ApoB,"blood lipids [4]; phase 2, baseline",1.47 mmol/L
same,H2O3,"blood lipids [4]; phase 2, baseline",1.27 µM
same,HDL-C,"blood lipids [4]; phase 2, baseline",1.11 mmol/L
same,LDL-C,"blood lipids [4]; phase 2, baseline",4.97 ± mmol/l
same,TBARM,"blood lipids [4]; phase 2, baseline",1.47 µM
same,% HDL-C,blood lipids [4]; [9],20.32 ± %
same,ApoA,blood lipids [4]; [9],1.40 ± mmol/l
same,ApoB,blood lipids [4]; [9],1.34 ± mmol/l
same,H2O3,blood lipids [4]; [9],0.81 ± μM
same,HDL-C,blood lipids [4]; [9],1.18 mmol/L
same,LDL-C,blood lipids [4]; [9],4.20 ± mmol/l
same,TBARM,blood lipids [4]; [9],1.07 µM
same,TC,"blood lipids [4]; phase 2, baseline",6.55 mmol/L
same,TC,blood lipids [4]; [9],5.81 ± mmol/l
same,TG,"blood lipids [4]; phase 2, baseline",0.65 mmol/L
same,TG,blood lipids [4]; [9],1.33 ± mmol/l
same,ACETATE,"[5]; phase 2, baseline",37.63 µmol/L
same,ACETATE,[5]; [9],54.31 ± μmol/l
same,FFA,"[5]; phase 2, baseline",0.59 mmol/L
same,FFA,[5]; [9],0.45 ± mmol/l
same,IR,"[5]; phase 2, baseline",3.22
same,IR,[5]; [9],2.93
same,ALBUMIN,"[5]; phase 2, baseline",43.09 g/L
same,GLUCOSE,"[5]; phase 2, baseline",3.58 mmol/L
same,INSULIN,"[5]; phase 2, baseline",8.96 μU/ml
same,PPA/ALB,"[5]; phase 2, baseline",13.69 × 10^1
same,ALBUMIN,[5]; [9],45.50 g/L
same,GLUCOSE,[5]; [9],3.78 mmol/L
same,INSULIN,[5]; [9],7.61 μU/ml
same,PPA/ALB,[5]; [9],9.89 ± × 10^1
same,TP,"[5]; phase 2, baseline",71.69 g/L
same,TP,[5]; [9],71.52 g/L
same,kinetics of network growth (turbidity at 608 nm),fibrin,enhanced the entire kinetics
same,Clot [FIBRlN],fibrin clot [6]; 75 μmol/L acetate,1.36 ± 0.03 g/L
same,Permeability,fibrin clot [6]; 75 μmol/L acetate,110.4 ± 5.17 × 10^11 cm^2
same,μT,fibrin clot [6]; 75 μmol/L acetate,17.44 ± 0.20 daltons/cm × 10^12
same,Clot [FIBRlN],fibrin clot [6]; 100 μmol/L acetate,1.37 ± 0.07 g/L
same,Permeability,fibrin clot [6]; 100 μmol/L acetate,118.0 ± 6.03 × 10^11 cm^2
same,μT,fibrin clot [6]; 100 μmol/L acetate,17.95 ± 0.22 daltons/cm × 10^12
same,Clot [FIBRlN],fibrin clot [6]; 150 μmol/L acetate,1.39 ± 0.05 g/L
same,Permeability,fibrin clot [6]; 150 μmol/L acetate,134.0 ± 5.02 × 10^11 cm^2
same,μT,fibrin clot [6]; 150 μmol/L acetate,19.51 ± 0.17 daltons/cm × 10^12
same,% Inhibition,blood lipids [7]; 0.05 mmol/L (50 μM) acetate,46.97%
same,[Hydroperoxide],blood lipids [7]; 0.05 mmol/L acetate,4.46 ± 0.15 × 10^−6 M
same,% Inhibition,blood lipids [7]; 0.10 mmol/L (100 μM) acetate,56.01%
same,[Hydroperoxide],blood lipids [7]; 0.10 mmol/L acetate,3.70 ± 0.22 × 10^−6 M
same,% Inhibition,blood lipids [7]; 0.20 mmol/L (200 μM) acetate,67.11%
same,[Hydroperoxide],blood lipids [7]; 0.20 mmol/L acetate,3.04 ± 0.23 × 10^−6 M
same,% Inhibition,blood lipids [7]; 0.30 mmol/L (300 μM) acetate,73.12%
same,[Hydroperoxide],blood lipids [7]; 0.30 mmol/L acetate,2.26 ± 0.16 × 10^−6 M
same,minium inhibition: decrease of peroxidation in vitro from linear regression analysis,"blood lipids [7]; r=0.98, m=−0.836",56.12%
same,BODY WEIGHT,"[8]; phase 2, baseline",88.16 ± 12.35 kg
same,BODY WEIGHT,"[8]; phase 2, baseline, listed as PLACEBO",88.16 kg
same,decrease in body weight,"[8]; phase 2, clinically significant but statistically insignificant",5.07 kg
same,BODY WEIGHT,[8]; [9],83.09 ± 10.80 kg
same,BODY WEIGHT,"[8]; phase 2, end of supplementation (pectin 15 g/day; calcium acetate 7.5 g/day), listed as PLACEBO",83.04 kg
